The values that follow come from PubChem BioAssay AID1053177 (The Scripps Research Institute Molecular Screening Center, 2014).

Active and inactive are the calls of the source.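 How the source made its calls: active means EC50 of 10 µM or lower; inactive means EC50 above 10 µM.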

The term EC50 denotes the midpoint of the concentration-response curve.

In this test the target is Trace amine-associated receptor 1 (Homo sapiens) (UniProt Q96RJ0). The experiment in a line: activators of human TAAR1 receptor – cell-based, fluorescence, MDRUN002, late-stage follow-up (AID 1053177). The settings on record: CHO TAAR1-HGA16 cells, cAMP TR-FRET, agonist. (In TR-FRET formats the signal depends on donor and acceptor labels being close together.)
Chain of Trace amine-associated receptor 1 (Homo sapiens) (Q96RJ0 whole entry, looked up, the tested form may be a part): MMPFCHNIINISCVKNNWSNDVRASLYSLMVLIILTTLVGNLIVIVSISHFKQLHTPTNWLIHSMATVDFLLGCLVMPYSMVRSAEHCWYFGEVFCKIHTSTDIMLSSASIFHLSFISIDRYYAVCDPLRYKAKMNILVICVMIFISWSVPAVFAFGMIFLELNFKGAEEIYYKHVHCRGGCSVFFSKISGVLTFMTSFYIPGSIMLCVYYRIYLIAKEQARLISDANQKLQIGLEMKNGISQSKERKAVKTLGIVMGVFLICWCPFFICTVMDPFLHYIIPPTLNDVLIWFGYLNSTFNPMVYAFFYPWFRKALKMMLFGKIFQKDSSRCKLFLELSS

Take `N#Cc1c(C(F)(F)F)cc(-c2ccc(Cl)cc2)nc1SCC(=O)Nc1ncccn1`: the EC50 was > 37400 nM (inactive). As for `N#Cc1c(C(F)(F)F)cc(-c2ccc(Cl)cc2)nc1SCC(=O)N1CCCC1`, the EC50 was > 37400 nM (inactive). The figure for `Cc1ccc(C(=O)CCN2CCC(c3ccccc3)C2)cc1` (configuration not stated) is 335 nM; for `CC(CN1CCCC1Cc1ccccc1)C(=O)c1ccc2c(c1)OCCO2` (configuration not stated) it is 438 nM; for `COc1cc(C(=O)CCN2CCC(c3ccccc3)C2)cc(OC)c1OC` (configuration not stated) it is 131 nM.

For the compound `N#Cc1c(C(F)(F)F)cc(-c2ccc(Cl)cc2)nc1SCC(=O)N1CCCCCC1`, the EC50 is > 37400 nM (inactive). Consider `O=C(CCN1CCC(c2ccccc2)C1)c1ccccc1` (configuration not stated), for which the EC50 is 97.3 nM.
